We go through four molecules from US20050196362A1, “Personal care compositions containing highly branched primary alcohol component” (priority 2004, published 2005).

Data set [1] can be described thus: Pigment dispersion: amount of Z-cote HP1 dispersed before viscosity reaches 10,000 cps. Type of data set: physicochemical. The note with it: 100 g solubilizer/dispersant; Brookfield RVT 20 rpm, 25° C. The procedure: (§1) The branched primary alcohol component and the Z-cote were mixed for 15 minutes at 5000 rpm using a Silverson mixer to form a dispersion of zinc oxide in the alcohol component. The dispersion was allowed to equilibrate to room temperature (25° C.), and then viscosity measurements were taken using a Brookfield (RTM) RVT Viscometer set at 20 rpm. Additional Z-cote was then added to the branched alcohol component in incremental amounts of 15 g. Viscosity measurements were taken after mixing each incremental amount of Z-cote with the branched alcohol component for 15 minutes and after allowing the resulting dispersion to return to room temperature. When the viscosity of the dispersion reached or exceeded 10,000 cps no further additions of Z-cote were made and no further viscosity measurements were taken. A target viscosity of 10,000 cps was selected since a dispersion having a viscosity of greater than 10,000 cps is not preferred for use in a sunscreen composition.
(§2) Pigment Dispersion: Pigment was added to a 100 gm of emollient sample. The mixture was blended using a Silverson mixer for 15 minutes at 5000 rpm. The viscosity was measured after the sample had equilibrated to room temperature.

Data set [2] can be described thus: Pigment dispersion: amount of Eusolex T2000 dispersed before viscosity reaches 10,000 cps. Type of data set: physicochemical. The settings on record: 100 g solubilizer/dispersant; Brookfield RVT 20 rpm, 25° C. The procedure: as §1, §2
Data set [3] is described as follows: Pigment dispersion: amount of Z-cote dispersed before viscosity reaches 10,000 cps. Type of data set: physicochemical. The settings on record: 100 g solubilizer/dispersant; Brookfield RVT 20 rpm, 25° C. The procedure:
as §1
From FIG. 1, the amount of Z-cote needed to provide a dispersion having a viscosity of 10,000 cps may be determined for each solubilizer/dispersant.
as §2

The nature of data set [4]: In vitro SPF of sunscreen formulation with dispersing agent. The settings on record: sunscreen formulation with 15.00 % by weight dispersing agent; artificial medium. The method, then:
(§3) This example compares the alcohol of the present invention to several other dispersing agents in terms of in vitro SPF and viscosity. In vitro SPF means that the test was not carried out on human skin, but an artificial medium. The sunscreen formulation is manufactured as follows. The ingredients of Phase A are combined together at 75° C. The ingredients of Phase B are combined together at 75° C. Phase B is then added to Phase A. Phase C is added to the resulting mixture, followed by cooling of the mixture to 40° C. and adding Phase D. The formulation is ready for packaging at a temperature of 35° C.

Data set [5] in a line: Viscosity of sunscreen formulation with dispersing agent. The format is physicochemical. The note with it: sunscreen formulation with 15.00 % by weight dispersing agent. The procedure:
as §3

A short description of data set [6]: Solubility profile of branched emollient alcohols in cosmetic solvents. Details: key: +: Soluble; +/−: Dispersible. Type of data set: physicochemical.
Data set [7] is described as follows: Oven stability test of W/O and O/W lotions. Type of data set: physicochemical. The settings on record: 90 days at 23° C. and 45° C. The procedure: Stability Tests: All W/O and O/W lotions were placed on stability testing for phase and odor stability monitoring for 90 days at 23° C. (room temperature) and 45° C.
Data set [8] in a line: Freeze/Thaw testing of prototype formulation (3 cycles). Type of data set: physicochemical. The settings on record: three 24 hr. freeze/thaw cycles. The procedure:
Freeze/Thaw testing: Phase stability was observed using approximately 30 ml of a prototype formulation. After preparation, the samples were cooled until solid for 24 hrs. They were allowed to equilibrate to room temperature when the appearance of the formulation was recorded. This process was repeated for three 24 hr. freeze/thaw cycles.

Data set [9] in a line: Viscosity of lotion/moisturizer emulsions containing the fatty alcohol. Type of data set: physicochemical. The method, then: Solubility: Two emulsion types (W/O-water-in-oil night cream/lotion and O/W-oil-in-water moisturizer lotion) were prepared. Both types of products incorporated commonly used cosmetic ingredients. The C1617 MM MO and the Guerbet C16 alcohols were used at 15% in the W/O lotion and 10% in the moisturizer.
MO C1617 mono-methyl branched primary alcohol was formulated in a water-in-oil night cream and an oil-in-water moisturizer formula as indicated in Tables 8 and 10 respectively. The viscosity and formula properties of the MO methyl-branched primary alcohol were evaluated relative to a branched C18 emollient alcohol and the data is indicated in Tables 9 and 11 respectively.

The mark [10] stands for this setting: Table 8 formulation, 15.0 % wt fatty alcohol.
[11] abbreviates: Table 10 oil-in-water moisturizer, 10.0 % wt fatty alcohol.

As for “octyldodecyl neopentanoate [Elefac I-205]”, the “Amount in grams of Z-cote HP1 needed to give a viscosity of 10,000 cps” value in data set [1] is on record as 65 grams. For the same molecule, the “Amount in grams of Eusolex T2000 needed to give a viscosity of 10,000 cps” value in [2] is given as 35 grams. In data set [3], the “Amount in grams of Z-cote needed to give a viscosity of 10,000 cps” value stood at 24 grams.
For `CCCCCCCCOC(=O)CCCCCCCCC(=O)OCCCCCCCC` [Dioctyl sebacate (DOS), Dioctyl sebacate] the same measures were 50 grams, 34 grams and 20 grams.
As for `CCCCCCCCCCCCCCCC(=O)OCC(CC)CCCC` (centres unmarked) [Ethylhexylpalmitate], the “In-vitro SPF” value in data set [4] turned out to be 22.73. Besides, the “Viscosity, cps” value in data set [5] is 13000 cps.
`CCCCCCCCC(CO)CCCCCC` (centres unmarked) [Guerbet C16 Branched]: the Solubility result in data set [6] (C12-15 Alkyl Benzoate (90%), @ 25° C.) was “+”; in [6] (C12-15 Alkyl Benzoate (90%), @ 50° C.), “+”; in data set [6] (Dimethicone 245 (90%), @ 25° C.), “+”; in [6] (Dimethicone 245 (90%), @ 50° C.), “+”; in data set [6] (Isododecane (90%), @ 25° C.), “+”; in data set [6] (Isododecane (90%), @ 50° C.), “+”. Moreover, the Solubility result is given as “+” in data set [6] (Isohexadecane (90%), @ 25° C.); “+” in data set [6] (Isohexadecane (90%), @ 50° C.); “+” in data set [6] (Isopropylmyristyl Alcohol (90%), @ 25° C.); “+” in [6] (Isopropylmyristyl Alcohol (90%), @ 50° C.); “+” in [6] (Mineral Oil (90%), @ 25° C.); “+” in data set [6] (Mineral Oil (90%), @ 50° C.). In addition, the Solubility result in data set [6] (Octocrylene (30%), @ 25° C.) is recorded as “+”; in data set [6] (Octocrylene (30%), @ 50° C.) it was “+”; in data set [6] (Octyl Dimethyl Paba (30%), @ 25° C.) it was “+”; in data set [6] (Octyl Dimethyl Paba (30%), @ 50° C.), “+”; in [6] (Octyldodecanol (90%), @ 25° C.) it was “+”; in data set [6] (Octyldodecanol (90%), @ 50° C.), “+”. Moreover, the Solubility result in data set [6] (Propylene Glycol (90%), @ 25° C.) is recorded as “+/−”; in [6] (Propylene Glycol (90%), @ 50° C.) it was “+”; in data set [6] (Sesame Oil (90%), @ 25° C.), “+”; in data set [6] (Sesame Oil (90%), @ 50° C.), “+”. Further, the “In-vitro SPF” value in data set [4] came to 22.6. In addition, the “Oven Stability” value in data set [7] (setting [10]) and in data set [7] (setting [11]) was “Pass” in each case. Further, the “Viscosity, cps” value in [5] was 2700 cps; in data set [9] (setting [10]), 7,600 cps; in data set [9] (setting [11]) it was 11,300 cps. In addition, the “Freeze-Thaw (3 cycles)” value in data set [8] (setting [10]) and in [8] (setting [11]) was “Pass” throughout.
